{"source": "paper PMC6044610", "about": "(ACS Omega, 2016)", "key": {"[1]": {"tested_on": "P. falciparum (CQ-resistant) W2 strain", "experiment": "In vitro antimalarial SYBR Green I fluorescence assay, Pf W2", "assay_type": "cell-based", "details": "Plasmodium falciparum, W2, 72 h, read-out: IC50 Pf W2"}, "[2]": {"details": "cited from earlier work"}, "[3]": {"tested_on": "P. falciparum (3D7) trophozoite development", "assay_type": "cell-based, Plasmodium falciparum", "details": "5 μM, ~24 h treatment from midring stage"}}}
{"smiles": "CCN(CC)CCCC(C)Nc1ccnc2cc(Cl)ccc12", "note": "(stereo not drawn) [CQ, chloroquine]", "values": [{"measurement": "IC50", "setting": "[1]", "result": "430.6 ± 1.05", "unit": "nM"}, {"measurement": "log Kass with heme, reported value", "setting": "[2]", "result": 5.15}, {"measurement": "hemozoin in the food vacuole / parasite development after treatment", "setting": "[3]", "result": "no hemozoin was seen in the food vacuole"}]}
